Data taken from US20240239764A1, “SUBSTITUTED AMINOBENZYL HETEROARYL COMPOUNDS AS EGFR AND/OR PI3K INHIBITORS” (Mekanistic Therapeutics, priority 2020, published 2024).
Like-named read-outs stand apart in the source and are kept apart here. Values belong to the compound of their own block, whether it stands above or below them.

Legend:
[1] = biological target: PI3Ka (Homo sapiens, UniProt P42336); experiment: Z′-LYTE / ADAPTA kinase assay, PI3Ka; format: biochemical; conditions: for inhibition at 0.1 µM: read-out: PI3Ka % Inh. @100 nM
PI3Ka, sequence (P42336 whole entry): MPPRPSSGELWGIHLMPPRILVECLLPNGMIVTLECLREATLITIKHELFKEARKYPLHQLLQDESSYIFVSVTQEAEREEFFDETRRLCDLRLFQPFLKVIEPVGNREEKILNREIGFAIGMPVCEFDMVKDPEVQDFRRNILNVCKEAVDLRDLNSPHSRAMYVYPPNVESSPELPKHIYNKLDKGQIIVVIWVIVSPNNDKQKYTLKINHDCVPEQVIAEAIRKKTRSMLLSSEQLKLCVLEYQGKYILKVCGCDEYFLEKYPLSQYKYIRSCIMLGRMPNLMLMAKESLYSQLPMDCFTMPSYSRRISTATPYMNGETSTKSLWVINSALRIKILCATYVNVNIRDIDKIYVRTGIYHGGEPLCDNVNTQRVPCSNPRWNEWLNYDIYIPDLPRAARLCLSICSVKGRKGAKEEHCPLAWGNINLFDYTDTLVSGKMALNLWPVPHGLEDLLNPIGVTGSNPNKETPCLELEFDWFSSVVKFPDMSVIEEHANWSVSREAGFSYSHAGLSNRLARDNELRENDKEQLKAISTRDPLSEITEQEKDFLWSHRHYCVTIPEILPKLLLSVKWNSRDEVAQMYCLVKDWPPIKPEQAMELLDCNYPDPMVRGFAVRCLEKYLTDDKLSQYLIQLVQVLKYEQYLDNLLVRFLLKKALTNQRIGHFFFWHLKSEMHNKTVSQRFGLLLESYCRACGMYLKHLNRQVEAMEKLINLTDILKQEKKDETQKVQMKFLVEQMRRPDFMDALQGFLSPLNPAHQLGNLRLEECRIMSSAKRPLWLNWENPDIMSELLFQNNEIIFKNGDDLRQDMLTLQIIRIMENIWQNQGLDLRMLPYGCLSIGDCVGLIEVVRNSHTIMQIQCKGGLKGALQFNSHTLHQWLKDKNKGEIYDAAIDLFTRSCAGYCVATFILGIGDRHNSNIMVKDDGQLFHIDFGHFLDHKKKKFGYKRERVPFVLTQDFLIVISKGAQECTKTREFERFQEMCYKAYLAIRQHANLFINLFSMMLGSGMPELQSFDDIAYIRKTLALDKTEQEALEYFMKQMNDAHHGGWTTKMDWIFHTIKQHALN
PI3Ka, sequence (P27986 whole entry partner): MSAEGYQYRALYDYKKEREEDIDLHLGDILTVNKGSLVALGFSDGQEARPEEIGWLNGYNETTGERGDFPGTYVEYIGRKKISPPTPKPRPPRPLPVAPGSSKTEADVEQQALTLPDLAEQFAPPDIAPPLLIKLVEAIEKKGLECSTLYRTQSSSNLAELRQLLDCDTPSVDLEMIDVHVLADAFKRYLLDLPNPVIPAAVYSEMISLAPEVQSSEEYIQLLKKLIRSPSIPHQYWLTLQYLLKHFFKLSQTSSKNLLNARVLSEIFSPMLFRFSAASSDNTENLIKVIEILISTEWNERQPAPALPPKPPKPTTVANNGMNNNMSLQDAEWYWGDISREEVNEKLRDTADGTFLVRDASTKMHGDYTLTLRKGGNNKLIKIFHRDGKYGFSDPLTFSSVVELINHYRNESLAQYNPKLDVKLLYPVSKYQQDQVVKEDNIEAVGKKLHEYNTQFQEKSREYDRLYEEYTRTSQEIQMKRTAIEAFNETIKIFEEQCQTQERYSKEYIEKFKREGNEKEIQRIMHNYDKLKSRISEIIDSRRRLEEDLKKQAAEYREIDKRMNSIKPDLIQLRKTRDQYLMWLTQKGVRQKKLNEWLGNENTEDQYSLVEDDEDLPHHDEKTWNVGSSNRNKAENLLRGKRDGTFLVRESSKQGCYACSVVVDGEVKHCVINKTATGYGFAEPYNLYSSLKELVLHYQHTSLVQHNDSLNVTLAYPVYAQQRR
Description: (§1) The Z′-LYTE® biochemical assay employs a fluorescence-based, coupled-enzyme format and is based on the differential sensitivity of phosphorylated and non-phosphorylated peptides to proteolytic cleavage (FIG. 6). The peptide substrate is labeled with two fluorophores—one at each end—that make up a FRET pair. In the primary reaction, the kinase transfers the gamma-phosphate of ATP to a single tyrosine, serine or threonine residue in a synthetic FRET-peptide. In the secondary reaction, a site-specific protease recognizes and cleaves non-phosphorylated FRET-peptides. Phosphorylation of FRET-peptides suppresses cleavage by the Development Reagent. Cleavage disrupts FRET between the donor (i.e., coumarin) and acceptor (i.e., fluorescein) fluorophores on the FRET-peptide, whereas uncleaved, phosphorylated FRET-peptides maintain FRET. A ratiometric method, which calculates the ratio (the Emission Ratio) of donor emission to acceptor emission after excitation of the donor fluorophore at 400 nm, is used to quantitate reaction progress.
A significant benefit of this ratiometric method for quantitating reaction progress is the elimination of well-to-well variations in FRET-peptide concentration and signal intensities. As a result, the assay yields very high Z′-factor values (>0.7) at a low percent phosphorylation.
Both cleaved and uncleaved FRET-peptides contribute to the fluorescence signals and therefore to the Emission Ratio. The extent of phosphorylation of the FRET-peptide can be calculated from the Emission Ratio.
Enzyme: The ADAPTA universal kinase assay is a homogenous, fluorescent based immunoassay for the detection of ADP. In contrast to ATP depletion assays, the ADAPTA assay is extremely sensitive to ADP formation such that a majority of the signal change occurs in the first 10-20% conversion of ATP to ADP. This makes the ADAPTA universal kinase assay ideally suited for use with low activity kinases.
The principle of the ADAPTA universal kinase assay is outlined below. The assay itself can be divided into two phases: a kinase reaction phase, and an ADP detection phase. In the kinase reaction phase, all components required for the kinase reaction are added to the well, and the reaction is allowed to incubate for 60 minutes. After the reaction, a detection solution consisting of a europium labeled anti-ADP antibody, an AlexaFluor® 647 labeled ADP tracer, and EDTA (to stop the kinase reaction) is added to the assay well. ADP formed by the kinase reaction (in the absence of an inhibitor) will displace the Alexa Fluor®647 labeled ADP tracer from the antibody, resulting in a decrease in the TR-FRET signal.
Test Compounds: The Test Compounds are screened in 1% DMSO (final) in the well. For 10 point titrations, 3-fold serial dilutions are conducted from the starting concentration.
Peptide/Kinase Mixtures: All Peptide/Kinase Mixtures are diluted to a 2× working concentration in the appropriate Kinase Buffer.
ATP Solution: All ATP Solutions are diluted to a 4× working concentration in Kinase Buffer (50 mM HEPES pH 7.5, 0.01% BRIJ-35, 10 mM MgCl2, 1 mM EGTA). ATP Km apparent is previously determined using a Z′-LYTE® assay.
Development Reagent Solution: The Development Reagent is diluted in Development Buffer.
10× Novel PKC Lipid Mix: 2 mg/mL Phosphatidyl Serine, 0.2 mg/mL DAG in 20 mM HEPES, pH 7.4, 0.3% CHAPS. For 5 mL 10× Novel PKC Lipid Mix: 1. Add 10 mgs Phosphatidyl Serine (Avanti Polar Lipids Part #8400032C or 840039C) and 1 mg DAG (Avanti Polar Lipids Part #800811 C) to a glass tube. 2. Remove the chloroform from lipid mixture by evaporating to a clear, thin film under a stream of nitrogen. Continuous rotation of the tube, at an angle to ensure maximum surface area of the lipid solution, will promote the thinnest film. 3. Add 5 mLs resuspension buffer, 20 mM HEPES, 0.3% CHAPS, pH 7.4, to the dried lipid mix 4. Heat gently to 50-60° C. for 1-2 minutes and vortex in short intervals until the lipids are dissolved to a clear or slightly hazy solution. […]

[2] = Pharmacokinetics in dogs, single IV / oral dose; format: in vivo
Method: (§2) The pharmacokinetics of Compound 2R (HCl salt) and Comparative Compound 2 were studied following a single intravenous and/or oral administration to mice, dogs, and monkeys (n=3 for all species). The IV and PO solution formulations for Comparative Compound 2 contained 20% (w/v) propylene glycol, 75% (w/v) 50 mM trisodium phosphate (pH 12), and 5% (w/v) Kolliphor EL. The formulation for Compound 2R contained 1:2 propylene glycol: 1% Tween 80/Na3PO4 (50 mM). Subsequent pharmacokinetic data analysis was performed using non-compartmental analysis modules in Phoenix/WINNONLIN 6.3 (Pharsight, St. Louis, Missouri, USA), and the linear trapezoidal rule was used for AUC calculation. Terminal elimination half-life (t½) was calculated based on data points (≥3) in the terminal phase; Tmax=Time of maximum observed concentration; AUClast/D=Area under the concentration-time curve from time zero to the last observed concentration/divided by dose; Cl_obs=Total body clearance; Cmax=maximum observed concentration; F=bioavailability of oral dose form. Blood samples were assayed for compounds using protein precipitation with acetonitrile followed by HPLC/MS/MS analysis. Blood concentration-time data were analyzed by non-compartmental methods.

[3] = Pharmacokinetics in mice, single IV / oral dose; format: in vivo
Method: as §2

[4] = Pharmacokinetics in monkeys, single IV / oral dose; format: in vivo
Method: as §2

[5] = Tolerability in the xenograft studies; format: in vivo; conditions: highest dose tested 100 mg/kg, daily dosing over >50 days, all xenograft studies
Method: Xenograft Studies. Female NCR nude mice (CrTac:NCr-Foxn1mu from Taconic), 6-7 weeks old, were implanted subcutaneously with 5×10^6 cells in a […] serum-free media/Matrigel® mixture into the region of the right axilla, Mice were randomized into treatment groups and treatments initiated when tumors reached 100 to 200 mg. Compound 2R was administered daily by oral gavage as a fine suspension in 1:2 propylene glycol in 1% Tween80, Na3PO4 based upon individual animal body weight (0.2 mL/20 g). Subcutaneous tumor volume and body weights were measured two to three times a week. Tumor volumes were calculated by measuring two perpendicular diameters with calipers and using the formula: tumor volume=(length×width2)/2. Individual mice were dosed daily until their tumor burden reached 500 mg for the CAL-27 and HCC-70 models or 1000 mg for the CAL-33 model, to allow for calculation of increase in progression-free survival. Percent increase in survival was calculated by comparing the median time to reach either 500 mg or 1000 mg in the treated group versus the vehicle control group. A complete response (CR) is defined as a tumor below the limits of palpation ([…]).

[6] = Solubility determination (PBS 7.4, SIF, SGF); format: physicochemical; conditions: kinetic from dmso stock
Method: Preparation of stock solutions: The stock solutions of test compounds and control compound diclofenac were prepared in DMSO at the concentrations of 10 mM.
Simulated Gastric Fluid (SGF): An aqueous mixture including hydrochloric acid, sodium chloride, and pepsin (pH=1.2).
Simulated Intestinal Fluid (SIF): Prepared by dissolving 6.8 g of KH2PO4 into about 500 mL ultrapure water and adjust the solution to a pH 6.8 with 0.1 M NaOH. 10 g trypsin is then dissolved into ultrapure water. The two solutions are mixed well and diluted with ultrapure water to a final volume of 1000 mL.
485 μL of (SIF, SGF, PBS 7.4, FESSIF, or FESSGF) was added into each vial of the cap-less Solubility Sample plate. The assay was performed in duplicate. Add one stir stick to each vial and seal using a molded PTFE/Silicone plug. […] After completion of the 2 hours, plugs were removed and the stir sticks were removed using a big magnet, the samples from the Solubility Sample plate were transferred into the filter plate. Using the Vacuum Manifold, all the samples were filtered. Aliquot of 5 μL and 5 μL DMSO were taken from the filtrate followed by addition of 490 μL of a mixture of H2O and acetonitrile containing internal standard (1:1). A certain proportion of ultrapure water was used to dilute the diluent according to the peak shape. The dilution factor was changed according to the solubility values and the LC-MS signal response.
Preparation of 300 μM standards (STD): From the 10 mM DMSO STD plate, 6 μL was transferred into the remaining empty plate, and then 194 μL of DMSO was added to that plate to have a STD concentration of 300 μM. From the 300 μM DMSO STD plate, 5 μL DMSO STD and 5 μL SIF was transferred into the remaining empty plate, and then 490 μL of a mixture of H2O and acetonitrile containing internal standard (1:1) was added to that plate to have a final STD concentration of 3 μM. A certain proportion of ultrapure water was used to dilute the diluent according to the peak shape. The concentrations of the standard samples were changed according to the LC-MS signal response.
Procedure for sample analysis: The plate was placed into the well plate autosampler. The samples were evaluated by LC-MS/MS analysis.
Data analysis: All calculations were carried out using Microsoft Excel. The filtrate was analyzed and quantified against a standard of known concentration using LC coupled with mass spectral peak identification and quantitation. Solubility values of the test compound and control compound were calculated as follows: […]
Any value of the compounds that was not within the specified limits was rejected and the experiment was repeated.

[7] = biological target: EGFR (Homo sapiens, UniProt P00533); experiment: Z′-LYTE / ADAPTA kinase assay, EGFR; format: biochemical
EGFR, sequence (P00533 25-1210): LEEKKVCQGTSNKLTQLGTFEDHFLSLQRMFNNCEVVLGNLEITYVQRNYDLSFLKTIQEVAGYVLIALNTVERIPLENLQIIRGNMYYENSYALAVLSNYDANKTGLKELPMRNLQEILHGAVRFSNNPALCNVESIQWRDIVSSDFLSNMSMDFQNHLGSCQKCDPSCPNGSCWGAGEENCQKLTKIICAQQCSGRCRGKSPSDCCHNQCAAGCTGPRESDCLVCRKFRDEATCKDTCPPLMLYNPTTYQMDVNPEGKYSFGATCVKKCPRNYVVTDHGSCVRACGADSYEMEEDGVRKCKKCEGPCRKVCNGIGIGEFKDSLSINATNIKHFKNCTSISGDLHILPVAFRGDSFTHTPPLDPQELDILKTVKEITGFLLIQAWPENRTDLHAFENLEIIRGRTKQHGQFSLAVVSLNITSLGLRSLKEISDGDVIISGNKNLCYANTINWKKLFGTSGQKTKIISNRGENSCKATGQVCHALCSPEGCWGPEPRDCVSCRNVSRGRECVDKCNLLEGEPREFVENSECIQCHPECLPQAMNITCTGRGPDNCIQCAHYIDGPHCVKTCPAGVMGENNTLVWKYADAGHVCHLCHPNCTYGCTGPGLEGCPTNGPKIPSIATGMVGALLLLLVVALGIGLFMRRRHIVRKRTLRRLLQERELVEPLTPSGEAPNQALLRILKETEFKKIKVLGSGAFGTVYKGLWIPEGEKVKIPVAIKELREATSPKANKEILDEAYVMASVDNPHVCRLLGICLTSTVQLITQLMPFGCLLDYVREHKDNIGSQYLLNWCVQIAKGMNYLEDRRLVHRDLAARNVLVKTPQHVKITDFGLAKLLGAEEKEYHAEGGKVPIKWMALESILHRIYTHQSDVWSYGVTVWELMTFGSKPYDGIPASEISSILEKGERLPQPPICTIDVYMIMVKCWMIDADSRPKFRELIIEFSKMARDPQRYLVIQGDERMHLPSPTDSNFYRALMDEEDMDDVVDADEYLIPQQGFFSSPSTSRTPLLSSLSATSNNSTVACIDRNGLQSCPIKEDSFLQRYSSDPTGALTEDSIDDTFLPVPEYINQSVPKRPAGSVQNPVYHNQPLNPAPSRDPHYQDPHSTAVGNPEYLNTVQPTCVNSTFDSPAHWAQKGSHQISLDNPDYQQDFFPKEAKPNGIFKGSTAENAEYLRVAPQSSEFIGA
Description: as §1, with “Cleavage disrupts FRET between the donor (i.e., coumarin) and acceptor (i.e., fluorescein) fluorophores on the FRET-peptide, whereas uncleaved, phosphorylated FRET-peptides maintain FRET.” left out
(§3) A significant benefit of this ratiometric method for quantitating reaction progress is the elimination of well-to-well variations in FRET-peptide concentration and signal intensities. […]
(§4) Both cleaved and uncleaved FRET-peptides contribute to the fluorescence signals and therefore to the Emission Ratio. The extent of phosphorylation of the FRET-peptide can be calculated from the Emission Ratio. […]

[8] = biological target: DNA-PK (Homo sapiens, UniProt P78527); experiment: Z′-LYTE / ADAPTA kinase assay, DNA-PK; format: biochemical; conditions: read-out: DNA-PK % Inh. @ 100 nM
Description: as §1, with “Cleavage disrupts FRET between the donor (i.e., coumarin) and acceptor (i.e., fluorescein) fluorophores on the FRET-peptide, whereas uncleaved, phosphorylated FRET-peptides maintain FRET.” left out
as §3, §4

[9] = simulated intestinal fluid (SIF), fassgf or other biorelevant, simulated intestinal fluid pH 6.8, 25° C., read-out: Solubility SIF

Structure (SMILES): C[C@@H](Nc1c(C#N)cnc2ccc(-c3cnc(Cl)c(NS(C)(=O)=O)c3)cc12)c1ccc(F)cc1 [Compound 97R, N-[2-chloro-5-[3-cyano-4-[[(1R)-1-(4-fluorophenyl)ethyl]amino]-6-quinolyl]-3-pyridyl]methanesulfonamide]
inhibition at 0.1 µM [1]: 80 to 90%

Structure (SMILES): CS(=O)(=O)Nc1cc(-c2ccc3ncc(C#N)c(NC4(c5ccccc5)CC4)c3c2)cnc1Cl [Compound 106, N-[2-chloro-5-[3-cyano-4-[(1-phenylcyclopropyl)amino]-6-quinolyl]-3-pyridyl]methanesulfonamide]
inhibition at 0.1 µM [1]: > 90%

Structure (SMILES): C[C@@H](Nc1ncnc2ccc(-c3cnc(Cl)c(NS(C)(=O)=O)c3)cc12)c1ccccc1 [Compound 2R, N-(2-chloro-5-(4-((1R-phenylethyl)amino)quinazolin-6-yl)pyridin-3-yl)methanesulfonamide]
increase in exposure (AUClast/D) vs Comparative Compound 2 ([2]; IV): ~15 fold
improvement in exposure (AUClast/D) vs Comparative Compound 2 ([2]; oral): > 28 fold
increase in exposure (AUClast/D) vs Comparative Compound 2 ([3]; IV): ~3 fold
enhanced exposure (AUClast/D) relative to Comparative Compound 2 ([3]; oral): 3 fold
increase in exposure (AUClast/D) vs Comparative Compound 2 ([4]; IV): ~3 fold
improvement in exposure (AUClast/D) vs Comparative Compound 2 ([4]; oral): > 74 fold
Tolerability (body weight loss, clinical signs) [5]: well tolerated

solubility at 2 h ([6]; aqueous buffer, PBS pH 7.4, 25° C., read-out: Solubility pH 7.4 PBS buffer): ≤ 20 µM
solubility at 2 h ([6]; simulated gastric fluid (SGF), simulated gastric fluid pH 1.2, 25° C., read-out: Solubility SGF): > 200 µM
solubility at 2 h [6, 9]: ≤ 20 µM
IC50 [1]: 2 to 20 nM
Structure (SMILES): C[C@@H](Nc1c(C#N)cnc2ccc(-c3cnc(Cl)c(NS(C)(=O)=O)c3)cc12)c1ccccc1 [Compound 48R, N-(2-chloro-5-(3-cyano-4-((1R-phenylethyl)amino)quinolin-6-yl)pyridin-3-yl)methanesulfonamide]

solubility at 2 h [6, 9]: ≤ 20 µM
IC50 [1]: 20 to 200 nM
inhibition at 0.1 µM [1]: 80 to 90%
IC50 [7]: 20 to 200 nM
inhibition at 0.1 µM ([7]; read-out: EGFR % Inh. @ 100 nM): > 90%
inhibition at 0.1 µM [8]: > 90%
Structure (SMILES): CS(=O)(=O)Nc1cncc(-c2ccc3ncnc(NCc4ccccc4)c3c2)c1 [Comparative Compound 3, reference compound]

IC50 [1]: < 2 nM
Structure (SMILES): C[C@H](Nc1c(C#N)cnc2ccc(-c3cnc(Cl)c(NS(C)(=O)=O)c3)cc12)c1ccccc1 [Compound 48S, N-(2-chloro-5-(3-cyano-4-((1S-phenylethyl)amino)quinolin-6-yl)pyridin-3-yl)methanesulfonamide]

Structure (SMILES): CS(=O)(=O)Nc1cc(-c2ccc3ncc(C#N)c(NC4c5ccccc5CC4O)c3c2)cnc1Cl (stereo not drawn) [Compound 103, N-[2-chloro-5-[3-cyano-4-[(2-hydroxyindan-1-yl)amino]-6-quinolyl]-3-pyridyl]methanesulfonamide]
inhibition at 0.1 µM [1]: > 90%
